Reference: US8697033B2, “Modified pyrazine derivatives and uses thereof” (Medibeacon, LLC, priority 2008, dated 2014)
Marks after values point to notes of the source that are not given here.

Tests used:
[1] = Photophysical properties (excitation and emission maxima in PBS); type: physicochemical; conditions: 10 μM solution in PBS
Protocol: 3.2. Photophysical properties and protein binding. In general, renally excretable compounds are dissolved in PBS buffer to form a 2 mM stock solution. The UV absorbance properties are determined on a 100 μM solution in PBS using a UV-3101PC UV-Vis-NIR Scanning spectrophotometer system from Shimadzu. The fluorescence properties (λex, λem, and CPS at λem) are determined on a 10 μM solution in PBS using a Fluorolog-3 spectrofluorometer system from Jobin Yvon Horiba. The percent plasma protein binding are determined on a 20 μM compound solution in rat plasma incubated at 37° C. for 1 h. The separation of free from bound is made using an Amicon Centrifree YM-30 device (Regenerated Cellulose 30,000 MWCO) and a Z400K Refrigerated Universal Centrifuge from Hermle. The concentration of protein-free is determined via HPLC analysis using a set of external calibration standards and fluorescence detection.

[2] = Invasive pharmacokinetic (PK) studies (plasma concentration by HPLC); type: in vivo, Sprague-Dawley rats; conditions: rat, 1 mL of 2 mM solution i.v., plasma samples 0-120 min, mean ± SEM; for clearance: male, Sprague-Dawley, iv
Protocol: 3.6. Invasive pharmacokinetic (PK) studies. Male Sprague-Dawley rats (330-380 g) are anesthetized by Inactin (I.P.). Rats are surgically instrumented with a trachea tube (PE-190) to facilitate breathing and femoral artery and vein catheters (PE-50 filled with 20 units/mL heparinized saline) for blood sampling and drug administration respectively. After administration of 1 mL of a 2 mM solution of agent, approximately 200 μL of blood is sampled and placed into a heparinized tube (Microtainer Brand Tube w/Lithium Heparin, BD 365971) at 0, 1, 6, 12, 18, 30, 45, 60, 90, 120 min. The concentration of compound in each centrifuged plasma sample is determined via HPLC analysis using a set of external calibration standards and fluorescence detection. The resulting pharmacokinetic parameters of the compound are analyzed using WinNonLin pharmacokinetic modeling software (Pharsight, Mountain View, Calif.). This method is used to detect renally excretable compounds of the invention and FIG. 8 provides a plot illustrating invasive PK (plasma concentration) as a function of time following delivery of a renally excretable compound.

[3] = Urine elimination studies; type: in vivo, Sprague-Dawley rats; conditions: rat, 1 mL of 2 mM in PBS by tail vein injection, 6 h post injection; mean ± SEM
Protocol: 3.3. Urine elimination studies. Rat urine elimination studies are conducted in either conscious or anesthetized Sprague-Dawley rats. The test compound (1 mL, 2 mM in PBS) is administered by tail vein injection into conscious, restrained rats, with subsequent collection of urine at the time points of 2, 4 and 6 h post injection. The metabolic cages are washed with water to maximize the recovery of urine discharged at each time point. Alternatively, rats are anesthetized with 100 mg/kg Inactin intraperitoneally, a trachea tube is inserted to maintain adequate respiration, and 1 mL of test compound is injected into the lateral tail vein. Rats are placed on 37° C. heating pad during the entire experiment. At 6 h post injection, the abdomen is opened, and the urine is removed from the bladder using a 21 gauge needle and a 3 cc syringe. Quantitation of each compound in urine is performed via HPLC analysis using a set of external calibration standards and fluorescence detection. The percent recovery of compound in urine at each time point is calculated based on the balance of mass.

[4] = Non-invasive optical pharmacokinetic studies (fluorescence at the ear); type: in vivo, Sprague-Dawley rats; conditions: rat, 1 mL of 2 mM solution into tail vein, fluorescence monitored at the ear; mean ± SEM
Protocol: 3.4. Non-Invasive optical pharmacokinetic studies. Male Sprague-Dawley rats (330-380 g) are anesthetized by Inactin (I.P.) or 2% Isoflurane gas anesthesia delivered by a small rodent gas anesthesia machine (RC2, Vetequip, Pleasanton, Calif.). The animals are placed on a heated board where temperature is maintained between 36-38° C. One ear lobe is glued flat to a glass slide positioned approximately 2 mm beneath a fiber optic bundle for recording fluorescence from a test compound passing through the ear. After a 100 second baseline recording, 1 mL of a 2 mM solution is injected into the tail-vein of the rat and the fluorescence signal corresponding to plasma and tissue distribution and subsequent renal clearance of the compound is monitored at the ear. The pharmacokinetic parameters of the compounds are analyzed using WinNonLin pharmacokinetic modeling software (Pharsight, Mountain View, Calif.) and Microsoft (Redmond, Wash.) Excel. This method is used to detect renally excretable compounds of the invention and FIG. 6 provides a plot illustrating non-invasive in vivo fluorescence as a function of time following delivery of a renally excretable compound.
3.5. Optical monitoring apparatus and protocol. A nominal 473 nm solid state laser source (100) is employed (Power Technology model LDCU12/7314). […]

Photophysical Properties Emission λmax [1]	Photophysical Properties Excitation λmax [1]	clearance [2]	Plasma PK Clearance T1/2β [2]	Percent in Urine (6 hrs) [3]	Tissue clearance (Optical) T1/2β [4]	Compound
613 nm	498 nm	3 ± 0.2 mL/min	21.7 ± 1.3 (3)^b min			CCCNc1nc(C(=O)NCCNC(=O)CCOCCOCCOCCOCCOCCOCCOCCOCCOCCOCCOCCOC)c(NCCC)nc1C(=O)NCCNC(=O)CCOCCOCCOCCOCCOCCOCCOCCOCCOCCOCCOCCOC [Compound 1, N^2,N^5-Bis(38-oxo-2,5,8,11,14,17,20,23,26,29,32,35-dodecaoxa-39-azahentetracontan-41-yl)-3,6-bis(propylamino)pyrazine-2,5-dicarboxamide]
611 nm	501 nm	4.3 ± 1.1 mL/min	15.2 ± 6.7 (2) min	85 ± 2 (3) Percent	20.5 ± 2.5 (3) min	CCCNc1nc(C(=O)NCCOCCOCCOCCOCCOCCOCCOCCOCCOCCOCCOCCOCCOCCOCCOCCOCCOCCOCCOCCOCCOCCOCCOCCOC)c(NCCC)nc1C(=O)NCCOCCOCCOCCOCCOCCOCCOCCOCCOCCOCCOCCOCCOCCOCCOCCOCCOCCOCCOCCOCCOCCOCCOCCOC [Compound 4, 3,6-Bis(propylamino)-N^2,N^5-di(2,5,8,11,14,17,20,23,26,29,32,35,38,41,44,47,50,53,56,59,62,65,68,71-tetracosaoxatriheptacontan-73-yl)pyrazine-2,5-dicarboxamide]
